Test results: the kinase profiling compilation of Christmann-Franck et al. (2016)

Columns and labels:
[1] = molecular target: INSR (human) (UniProt P06213)
[2] = molecular target: ACVR1B (human) (UniProt P36896); assay: KINOMEscan competition binding; conditions: compound 10.0 µM
[3] = molecular target: INSRR (human) (UniProt P14616); assay: KINOMEscan competition binding; conditions: compound 10.0 µM
[4] = molecular target: LIMK2 (human) (UniProt P53671); assay: KINOMEscan competition binding; conditions: compound 10.0 µM
[5] = molecular target: MAP2K3 (human) (UniProt P46734); assay: KINOMEscan competition binding; conditions: compound 10.0 µM
[6] = molecular target: MAPK10 (human) (UniProt P53779); assay: KINOMEscan competition binding; conditions: compound 10.0 µM
[7] = molecular target: MAPK4 (human) (UniProt P31152); assay: KINOMEscan competition binding; conditions: compound 10.0 µM
[8] = molecular target: PRKX (human) (UniProt P51817); assay: KINOMEscan competition binding; conditions: compound 10.0 µM
[9] = molecular target: STK11 (human) (UniProt Q15831); assay: KINOMEscan competition binding; conditions: compound 10.0 µM
[10] = molecular target: ZAP70 (human) (UniProt P43403); assay: KINOMEscan competition binding; conditions: compound 10.0 µM
[11] = molecular target: PI4KA (human) (UniProt P42356)
[12] = molecular target: PI4KB (human) (UniProt Q9UBF8)
[13] = molecular target: PIK3C2A (human) (UniProt O00443)
[14] = molecular target: PIK3C2B (human) (UniProt O00750)
PIK3C2B (human), sequence (O00750 whole entry, looked up): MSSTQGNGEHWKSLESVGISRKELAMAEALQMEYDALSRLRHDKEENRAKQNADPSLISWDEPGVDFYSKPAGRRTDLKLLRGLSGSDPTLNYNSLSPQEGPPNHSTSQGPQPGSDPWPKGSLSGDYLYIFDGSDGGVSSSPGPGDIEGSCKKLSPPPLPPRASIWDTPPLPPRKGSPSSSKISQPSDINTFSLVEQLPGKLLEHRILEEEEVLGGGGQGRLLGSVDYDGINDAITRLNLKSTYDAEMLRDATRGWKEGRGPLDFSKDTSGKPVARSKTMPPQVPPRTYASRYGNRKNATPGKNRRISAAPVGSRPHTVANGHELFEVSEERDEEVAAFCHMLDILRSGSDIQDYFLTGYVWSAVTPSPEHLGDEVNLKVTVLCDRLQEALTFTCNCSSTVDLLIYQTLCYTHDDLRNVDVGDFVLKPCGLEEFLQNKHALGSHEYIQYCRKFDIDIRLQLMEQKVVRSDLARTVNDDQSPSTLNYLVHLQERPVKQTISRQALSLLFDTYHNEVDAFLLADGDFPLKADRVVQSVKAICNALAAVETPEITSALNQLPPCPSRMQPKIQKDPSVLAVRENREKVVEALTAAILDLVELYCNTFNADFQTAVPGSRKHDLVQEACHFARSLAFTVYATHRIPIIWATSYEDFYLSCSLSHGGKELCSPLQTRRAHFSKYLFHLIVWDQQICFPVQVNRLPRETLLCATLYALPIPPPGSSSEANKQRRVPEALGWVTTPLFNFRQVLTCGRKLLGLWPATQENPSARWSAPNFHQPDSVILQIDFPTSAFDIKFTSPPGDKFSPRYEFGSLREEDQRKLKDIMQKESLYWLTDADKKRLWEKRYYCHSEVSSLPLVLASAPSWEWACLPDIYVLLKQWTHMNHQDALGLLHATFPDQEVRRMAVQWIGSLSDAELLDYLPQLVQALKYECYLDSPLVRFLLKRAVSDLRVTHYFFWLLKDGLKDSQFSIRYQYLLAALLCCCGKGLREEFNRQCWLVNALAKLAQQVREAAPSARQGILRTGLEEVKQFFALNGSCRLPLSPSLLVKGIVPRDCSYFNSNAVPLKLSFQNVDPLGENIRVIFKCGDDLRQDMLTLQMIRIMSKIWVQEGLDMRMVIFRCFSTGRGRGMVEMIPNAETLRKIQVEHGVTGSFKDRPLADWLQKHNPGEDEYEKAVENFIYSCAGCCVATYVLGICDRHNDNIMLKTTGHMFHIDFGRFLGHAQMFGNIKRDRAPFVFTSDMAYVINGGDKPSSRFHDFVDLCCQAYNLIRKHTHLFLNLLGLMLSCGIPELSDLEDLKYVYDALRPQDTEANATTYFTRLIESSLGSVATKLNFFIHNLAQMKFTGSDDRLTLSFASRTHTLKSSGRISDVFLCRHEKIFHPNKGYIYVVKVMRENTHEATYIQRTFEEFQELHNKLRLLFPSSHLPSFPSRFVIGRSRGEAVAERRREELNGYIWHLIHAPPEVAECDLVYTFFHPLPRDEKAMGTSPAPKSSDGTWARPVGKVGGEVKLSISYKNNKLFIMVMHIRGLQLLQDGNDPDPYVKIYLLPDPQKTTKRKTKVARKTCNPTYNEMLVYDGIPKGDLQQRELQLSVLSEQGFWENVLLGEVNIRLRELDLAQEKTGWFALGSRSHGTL

[15] = molecular target: PIK3C3 (human) (UniProt Q8NEB9)
PIK3C3 (human), sequence (Q8NEB9 whole entry, looked up): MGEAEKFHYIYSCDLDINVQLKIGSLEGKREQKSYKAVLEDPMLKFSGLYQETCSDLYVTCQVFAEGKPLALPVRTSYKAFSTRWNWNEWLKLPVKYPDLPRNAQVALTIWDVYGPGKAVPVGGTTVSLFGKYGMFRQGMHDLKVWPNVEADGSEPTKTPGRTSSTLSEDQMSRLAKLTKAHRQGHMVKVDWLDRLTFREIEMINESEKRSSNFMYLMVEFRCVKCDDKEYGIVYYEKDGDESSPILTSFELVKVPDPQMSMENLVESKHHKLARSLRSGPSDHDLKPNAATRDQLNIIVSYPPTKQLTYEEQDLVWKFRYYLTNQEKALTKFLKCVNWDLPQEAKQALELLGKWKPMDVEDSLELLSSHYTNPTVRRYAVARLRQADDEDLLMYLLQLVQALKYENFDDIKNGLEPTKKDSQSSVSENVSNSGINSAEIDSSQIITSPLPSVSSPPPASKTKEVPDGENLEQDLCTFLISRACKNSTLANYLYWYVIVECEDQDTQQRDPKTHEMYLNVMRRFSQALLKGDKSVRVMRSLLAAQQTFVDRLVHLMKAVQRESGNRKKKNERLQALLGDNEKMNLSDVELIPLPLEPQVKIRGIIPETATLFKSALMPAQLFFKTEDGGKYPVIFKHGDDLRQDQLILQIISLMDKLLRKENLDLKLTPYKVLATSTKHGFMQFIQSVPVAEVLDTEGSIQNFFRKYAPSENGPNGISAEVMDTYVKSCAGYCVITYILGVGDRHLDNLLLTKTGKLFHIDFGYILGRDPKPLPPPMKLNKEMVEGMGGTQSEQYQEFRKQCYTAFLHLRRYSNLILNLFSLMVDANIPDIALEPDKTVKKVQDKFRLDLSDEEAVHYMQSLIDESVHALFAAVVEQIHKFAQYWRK

[16] = tested on: AKT1 (human), P31749 [S473D]
[17] = molecular target: AURKA (human) (UniProt O14965)
[18] = molecular target: BRSK1 (human) (UniProt Q8TDC3)
[19] = molecular target: ERBB4 (human) (UniProt Q15303)
[20] = molecular target: GCK (human) (UniProt Q12851)
[21] = molecular target: HIPK1 (human) (UniProt Q86Z02)
[22] = molecular target: IRAK4 (human) (UniProt Q9NWZ3)
[23] = molecular target: MAP3K11 (human) (UniProt Q16584)
[24] = molecular target: MAP3K9 (human) (UniProt P80192)
[25] = molecular target: MAPK10 (human) (UniProt P53779)
[26] = molecular target: MAPKAPK3 (human) (UniProt Q16644)
[27] = molecular target: MARK2 (human) (UniProt Q7KZI7)
MARK2 (human), sequence (Q7KZI7 whole entry, looked up): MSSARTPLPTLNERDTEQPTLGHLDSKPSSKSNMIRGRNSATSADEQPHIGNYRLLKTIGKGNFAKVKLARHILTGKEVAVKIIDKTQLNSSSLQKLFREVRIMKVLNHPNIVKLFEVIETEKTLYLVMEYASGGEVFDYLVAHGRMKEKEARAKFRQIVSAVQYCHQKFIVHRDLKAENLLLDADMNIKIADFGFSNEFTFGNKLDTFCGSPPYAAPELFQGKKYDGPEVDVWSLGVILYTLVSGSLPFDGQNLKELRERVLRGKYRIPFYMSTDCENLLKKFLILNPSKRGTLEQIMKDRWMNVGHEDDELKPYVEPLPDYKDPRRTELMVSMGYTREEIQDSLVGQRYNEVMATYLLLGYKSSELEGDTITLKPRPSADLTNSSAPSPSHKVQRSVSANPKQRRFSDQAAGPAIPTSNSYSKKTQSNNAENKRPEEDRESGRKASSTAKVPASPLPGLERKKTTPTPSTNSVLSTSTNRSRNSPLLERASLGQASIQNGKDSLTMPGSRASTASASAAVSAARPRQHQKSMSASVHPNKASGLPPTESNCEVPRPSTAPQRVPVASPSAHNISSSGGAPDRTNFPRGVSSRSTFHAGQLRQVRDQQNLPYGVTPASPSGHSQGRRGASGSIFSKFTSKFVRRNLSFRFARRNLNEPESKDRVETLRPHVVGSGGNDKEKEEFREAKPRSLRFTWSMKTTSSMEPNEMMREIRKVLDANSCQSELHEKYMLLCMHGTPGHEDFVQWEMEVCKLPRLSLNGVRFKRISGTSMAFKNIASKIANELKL

[28] = molecular target: MARK4 (human) (UniProt Q96L34)
[29] = molecular target: MINK1 (human) (UniProt Q8N4C8)
[30] = molecular target: MYLK (human) (UniProt Q15746)
[31] = tested on: PAK2 (human), Q13177 [T402E]
PAK2 (human), Q13177 [T402E], sequence (Q13177 whole entry T402E, looked up): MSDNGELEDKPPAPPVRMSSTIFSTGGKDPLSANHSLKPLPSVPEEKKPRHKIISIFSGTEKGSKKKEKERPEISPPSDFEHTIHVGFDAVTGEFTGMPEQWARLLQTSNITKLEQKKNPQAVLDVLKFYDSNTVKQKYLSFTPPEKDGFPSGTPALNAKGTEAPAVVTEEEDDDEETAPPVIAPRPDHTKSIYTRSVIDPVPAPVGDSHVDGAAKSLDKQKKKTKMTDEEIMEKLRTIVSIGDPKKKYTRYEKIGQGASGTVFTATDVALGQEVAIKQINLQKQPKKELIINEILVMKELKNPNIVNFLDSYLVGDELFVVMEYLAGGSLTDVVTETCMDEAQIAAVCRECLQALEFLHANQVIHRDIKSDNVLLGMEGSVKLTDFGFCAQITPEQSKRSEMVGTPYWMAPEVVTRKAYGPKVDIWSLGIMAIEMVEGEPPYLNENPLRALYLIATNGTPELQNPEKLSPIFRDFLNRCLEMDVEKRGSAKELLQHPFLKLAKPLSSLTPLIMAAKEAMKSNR

[32] = molecular target: RIPK2 (human) (UniProt O43353)
[33] = molecular target: STK11 (human) (UniProt Q15831)
[34] = molecular target: TTK (human) (UniProt P33981)
[35] = tested on: CPK1 (P.falciparum); assay: KINOMEscan competition binding; conditions: compound 10.0 µM
[36] = tested on: EGFR (human), P00533 [A750P; 747-749 del]; assay: KINOMEscan competition binding; conditions: compound 10.0 µM
[37] = molecular target: EPHB4 (human) (UniProt P54760); assay: KINOMEscan competition binding; conditions: compound 10.0 µM
EPHB4 (human), sequence (P54760 whole entry, looked up): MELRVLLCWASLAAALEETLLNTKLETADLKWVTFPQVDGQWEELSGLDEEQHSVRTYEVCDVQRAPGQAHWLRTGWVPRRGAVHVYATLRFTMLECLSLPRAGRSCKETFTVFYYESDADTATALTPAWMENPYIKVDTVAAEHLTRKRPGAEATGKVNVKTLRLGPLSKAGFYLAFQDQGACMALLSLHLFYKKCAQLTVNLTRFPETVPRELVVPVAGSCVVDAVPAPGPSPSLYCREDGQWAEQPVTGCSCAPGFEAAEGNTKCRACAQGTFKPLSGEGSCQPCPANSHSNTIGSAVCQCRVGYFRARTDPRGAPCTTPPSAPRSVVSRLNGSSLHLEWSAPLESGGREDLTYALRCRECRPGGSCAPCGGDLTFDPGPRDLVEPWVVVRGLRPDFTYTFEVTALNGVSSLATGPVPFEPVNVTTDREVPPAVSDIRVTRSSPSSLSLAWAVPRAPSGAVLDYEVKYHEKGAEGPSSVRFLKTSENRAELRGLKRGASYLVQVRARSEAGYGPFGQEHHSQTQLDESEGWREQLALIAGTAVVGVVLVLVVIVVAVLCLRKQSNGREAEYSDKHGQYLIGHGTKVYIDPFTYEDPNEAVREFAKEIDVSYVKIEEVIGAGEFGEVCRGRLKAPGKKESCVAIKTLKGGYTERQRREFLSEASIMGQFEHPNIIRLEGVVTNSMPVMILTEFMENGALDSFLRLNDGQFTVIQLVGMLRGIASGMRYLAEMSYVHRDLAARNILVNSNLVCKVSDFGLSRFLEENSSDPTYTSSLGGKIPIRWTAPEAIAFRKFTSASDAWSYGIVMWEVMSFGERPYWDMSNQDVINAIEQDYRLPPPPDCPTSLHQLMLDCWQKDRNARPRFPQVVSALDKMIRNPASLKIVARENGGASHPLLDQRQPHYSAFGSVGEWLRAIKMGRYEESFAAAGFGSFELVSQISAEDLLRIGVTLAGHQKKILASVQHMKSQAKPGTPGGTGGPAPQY

Compound `CC(C)n1nc(-c2cc3cc(O)ccc3[nH]2)c2c(N)ncnc21` has a per cent of control ([1]; compound 1.0 µM) of 69%, a per cent of control ([1]; compound 10.0 µM) of 58% and a kinase still bound, per cent of control [2] of 11%. The kinase still bound, per cent of control [3] was 100%, the kinase still bound, per cent of control [4] was 77% and the kinase still bound, per cent of control [5] was 1.7%. For the same compound, the kinase still bound, per cent of control [6] was 72%, the kinase still bound, per cent of control [7] was 75% and the kinase still bound, per cent of control [8] was 100%. The kinase still bound, per cent of control [9] was 79%, the kinase still bound, per cent of control [10] was 99% and the IC50 [11] was greater than 10 µM. It also gave an IC50 [12] of 2.13 µM, an IC50 [13] of 0.866 µM and an IC50 [14] of 0.0829 µM. For the same compound, the IC50 [15] was greater than 10 µM.
`CCC(=O)N1CCN(c2ccc(-n3c(=O)ccc4cnc5ccc(-c6cnc7ccccc7c6)cc5c43)cc2C(F)(F)F)CC1` was tested, and the per cent of control ([16]; compound 1.0 µM) was 94%, the per cent of control ([16]; compound 10.0 µM) was 71% and the per cent of control ([17]; compound 1.0 µM) was 88%. The per cent of control ([17]; compound 10.0 µM) was 68%, the per cent of control ([18]; compound 1.0 µM) was 99% and the per cent of control ([18]; compound 10.0 µM) was 94%. The per cent of control ([19]; compound 1.0 µM) was 110%, the per cent of control ([19]; compound 10.0 µM) was 111% and the per cent of control ([20]; compound 1.0 µM) was 69%. The per cent of control ([20]; compound 10.0 µM) was 25%, the per cent of control ([21]; compound 1.0 µM) was 76% and the per cent of control ([21]; compound 10.0 µM) was 85%. It also gave a per cent of control ([22]; compound 1.0 µM) of 112%, a per cent of control ([22]; compound 10.0 µM) of 76% and a per cent of control ([23]; compound 1.0 µM) of 99%. For the same compound, the per cent of control ([23]; compound 10.0 µM) was 86%, the per cent of control ([24]; compound 1.0 µM) was 92% and the per cent of control ([24]; compound 10.0 µM) was 48%. The per cent of control ([25]; compound 1.0 µM) was 99%, the per cent of control ([25]; compound 10.0 µM) was 79% and the per cent of control ([26]; compound 1.0 µM) was 113%. For the same compound, the per cent of control ([26]; compound 10.0 µM) was 105%, the per cent of control ([27]; compound 1.0 µM) was 117% and the per cent of control ([27]; compound 10.0 µM) was 102%. For the same compound, the per cent of control ([28]; compound 1.0 µM) was 94%, the per cent of control ([28]; compound 10.0 µM) was 97% and the per cent of control ([29]; compound 1.0 µM) was 69%. The per cent of control ([29]; compound 10.0 µM) was 14%, the per cent of control ([30]; compound 1.0 µM) was 94% and the per cent of control ([30]; compound 10.0 µM) was 83%. It also gave a per cent of control ([31]; compound 1.0 µM) of 93%, a per cent of control ([31]; compound 10.0 µM) of 82% and a per cent of control ([32]; compound 10.0 µM) of 64%. It also gave a per cent of control ([33]; compound 1.0 µM) of 96%, a per cent of control ([33]; compound 10.0 µM) of 80% and a per cent of control ([34]; compound 1.0 µM) of 79%. The per cent of control ([34]; compound 10.0 µM) was 71%, the kinase still bound, per cent of control [2] was 45% and the kinase still bound, per cent of control [35] was 36%. For the same compound, the kinase still bound, per cent of control [36] was 100%, the kinase still bound, per cent of control [37] was 85% and the kinase still bound, per cent of control [3] was 100%. The kinase still bound, per cent of control [4] was 4.8%, the kinase still bound, per cent of control [5] was 80% and the kinase still bound, per cent of control [6] was 31%. The kinase still bound, per cent of control [7] was 80%, the kinase still bound, per cent of control [8] was 83% and the kinase still bound, per cent of control [9] was 100%. For the same compound, the kinase still bound, per cent of control [10] was 100% and the IC50 [11] was greater than 10 µM.
With `COC(=O)Nc1ccc(-c2nc(N3CCOCC3)c3cnn(C4CCN(C(=O)OC)CC4)c3n2)cc1` the per cent of control ([16]; compound 1.0 µM) was 89%, the per cent of control ([16]; compound 10.0 µM) was 87% and the per cent of control ([17]; compound 1.0 µM) was 90%. It also gave a per cent of control ([17]; compound 10.0 µM) of 63%, a per cent of control ([18]; compound 10.0 µM) of 94% and a per cent of control ([19]; compound 1.0 µM) of 91%. The per cent of control ([19]; compound 10.0 µM) was 108%, the per cent of control ([20]; compound 1.0 µM) was 94% and the per cent of control ([20]; compound 10.0 µM) was 105%. For the same compound, the per cent of control ([21]; compound 1.0 µM) was 85%, the per cent of control ([21]; compound 10.0 µM) was 89% and the per cent of control ([22]; compound 1.0 µM) was 107%. The per cent of control ([22]; compound 10.0 µM) was 114%, the per cent of control ([23]; compound 1.0 µM) was 92% and the per cent of control ([23]; compound 10.0 µM) was 106%. For the same compound, the per cent of control ([24]; compound 1.0 µM) was 95%, the per cent of control ([24]; compound 10.0 µM) was 109% and the per cent of control ([25]; compound 1.0 µM) was 94%. For the same compound, the per cent of control ([25]; compound 10.0 µM) was 106%, the per cent of control ([26]; compound 1.0 µM) was 109% and the per cent of control ([26]; compound 10.0 µM) was 101%. It also gave a per cent of control ([27]; compound 1.0 µM) of 96%, a per cent of control ([27]; compound 10.0 µM) of 118% and a per cent of control ([28]; compound 1.0 µM) of 91%. It also gave a per cent of control ([28]; compound 10.0 µM) of 109%, a per cent of control ([29]; compound 1.0 µM) of 100% and a per cent of control ([29]; compound 10.0 µM) of 100%. For the same compound, the per cent of control ([30]; compound 1.0 µM) was 97%, the per cent of control ([30]; compound 10.0 µM) was 87% and the per cent of control ([31]; compound 1.0 µM) was 92%. For the same compound, the per cent of control ([31]; compound 10.0 µM) was 91%, the per cent of control ([32]; compound 1.0 µM) was 94% and the per cent of control ([32]; compound 10.0 µM) was 72%. For the same compound, the per cent of control ([33]; compound 1.0 µM) was 102%, the per cent of control ([33]; compound 10.0 µM) was 112% and the per cent of control ([34]; compound 1.0 µM) was 91%. For the same compound, the per cent of control ([34]; compound 10.0 µM) was 93%, the kinase still bound, per cent of control [2] was 100% and the kinase still bound, per cent of control [35] was 100%. It also gave a kinase still bound, per cent of control [36] of 88%, a kinase still bound, per cent of control [37] of 94% and a kinase still bound, per cent of control [3] of 100%. The kinase still bound, per cent of control [4] was 94%, the kinase still bound, per cent of control [5] was 95% and the kinase still bound, per cent of control [6] was 100%. For the same compound, the kinase still bound, per cent of control [7] was 68%, the kinase still bound, per cent of control [8] was 100% and the kinase still bound, per cent of control [9] was 100%. For the same compound, the kinase still bound, per cent of control [10] was 98%, the IC50 [11] was greater than 3.33 µM and the IC50 [12] was greater than 10 µM. For the same compound, the IC50 [13] was greater than 10 µM, the IC50 [14] was 5.15 µM and the IC50 [15] was greater than 10 µM.
With `COc1ccc(-c2ccc3c(N4CCOCC4)nc(N4C[C@@H](C)O[C@@H](C)C4)nc3n2)cc1CO` the per cent of control ([1]; compound 1.0 µM) was 81%, the per cent of control ([1]; compound 10.0 µM) was 67% and the kinase still bound, per cent of control [2] was 91%. The kinase still bound, per cent of control [35] was 100%, the kinase still bound, per cent of control [36] was 100% and the kinase still bound, per cent of control [37] was 100%. The kinase still bound, per cent of control [3] was 100%, the kinase still bound, per cent of control [4] was 94% and the kinase still bound, per cent of control [5] was 94%. It also gave a kinase still bound, per cent of control [6] of 81%, a kinase still bound, per cent of control [7] of 100% and a kinase still bound, per cent of control [8] of 100%. For the same compound, the kinase still bound, per cent of control [9] was 95%, the kinase still bound, per cent of control [10] was 83% and the IC50 [11] was greater than 10 µM. It also gave an IC50 [12] greater than 10 µM, an IC50 [13] greater than 10 µM and an IC50 [14] greater than 10 µM. The IC50 [15] was greater than 10 µM.
